Reference: a compilation of properties of binary mixtures (doi:10.1016/j.jct.2020.106330)

Experiment: xn = mol fraction of the nth substance listed
Details: 101.3 kPa

For `CN1CCCC1=O` + CCCC[n+]1ccn(C)c1.F[P-](F)(F)(F)(F)F, the speed of sound (308.15 K, x2 = 0) was 1505 m/s, the speed of sound (313.15 K, x2 = 0) was 1485.7 m/s and the speed of sound (318.15 K, x2 = 0) was 1466.7 m/s. It also gave a speed of sound (323.15 K, x2 = 0) of 1447.8 m/s.
In the case of `CCCC[n+]1ccn(C)c1.F[P-](F)(F)(F)(F)F` + CN1CCCC1=O, the speed of sound (303.15 K, x1 = 0.0513) is reported as 1522.2 m/s, the speed of sound (303.15 K, x1 = 0.1028) is reported as 1516.1 m/s and the speed of sound (303.15 K, x1 = 0.1422) is reported as 1510 m/s. It also gave a speed of sound (303.15 K, x1 = 0.499) of 1460.7 m/s, a speed of sound (303.15 K, x1 = 0.812) of 1437.9 m/s and a speed of sound (303.15 K, x1 = 0.8415) of 1436.6 m/s. The speed of sound (303.15 K, x1 = 0.8812) was 1434.9 m/s, the speed of sound (303.15 K, x1 = 0.9423) was 1432.9 m/s and the speed of sound (308.15 K, x1 = 0.0513) was 1503.9 m/s. The speed of sound (308.15 K, x1 = 0.1028) was 1498.8 m/s, the speed of sound (308.15 K, x1 = 0.1422) was 1493.2 m/s and the speed of sound (308.15 K, x1 = 0.1894) was 1486 m/s. For the same compound, the speed of sound (308.15 K, x1 = 0.2988) was 1470.9 m/s, the speed of sound (308.15 K, x1 = 0.499) was 1447.2 m/s and the speed of sound (308.15 K, x1 = 0.591) was 1438.8 m/s. It also gave a speed of sound (308.15 K, x1 = 0.812) of 1425.8 m/s, a speed of sound (308.15 K, x1 = 0.8415) of 1424.5 m/s and a speed of sound (308.15 K, x1 = 0.9423) of 1421.1 m/s. For the same compound, the speed of sound (308.15 K, x1 = 1) was 1419.8 m/s, the speed of sound (313.15 K, x1 = 0.0513) was 1485.8 m/s and the speed of sound (313.15 K, x1 = 0.1028) was 1481.6 m/s. For the same compound, the speed of sound (313.15 K, x1 = 0.1422) was 1476.6 m/s, the speed of sound (313.15 K, x1 = 0.1894) was 1470 m/s and the speed of sound (313.15 K, x1 = 0.2988) was 1456 m/s. It also gave a speed of sound (313.15 K, x1 = 0.499) of 1433.9 m/s, a speed of sound (313.15 K, x1 = 0.591) of 1425.9 m/s and a speed of sound (313.15 K, x1 = 0.6991) of 1419.4 m/s. The speed of sound (313.15 K, x1 = 0.812) was 1413.8 m/s, the speed of sound (313.15 K, x1 = 0.8415) was 1412.6 m/s and the speed of sound (313.15 K, x1 = 0.8812) was 1411.2 m/s. It also gave a speed of sound (313.15 K, x1 = 1) of 1408.2 m/s, a speed of sound (318.15 K, x1 = 0.1028) of 1464.5 m/s and a speed of sound (318.15 K, x1 = 0.1422) of 1460.1 m/s. The speed of sound (318.15 K, x1 = 0.1894) was 1454.1 m/s, the speed of sound (318.15 K, x1 = 0.2988) was 1441.3 m/s and the speed of sound (318.15 K, x1 = 0.6991) was 1407.1 m/s. It also gave a speed of sound (318.15 K, x1 = 0.812) of 1402 m/s, a speed of sound (318.15 K, x1 = 0.8415) of 1400.9 m/s and a speed of sound (318.15 K, x1 = 0.8812) of 1399.6 m/s. For the same compound, the speed of sound (318.15 K, x1 = 0.9423) was 1398 m/s, the speed of sound (318.15 K, x1 = 1) was 1396.8 m/s and the speed of sound (323.15 K, x1 = 0.0513) was 1450.1 m/s. The speed of sound (323.15 K, x1 = 0.1028) was 1447.6 m/s, the speed of sound (323.15 K, x1 = 0.1422) was 1443.8 m/s and the speed of sound (323.15 K, x1 = 0.1894) was 1438.4 m/s. It also gave a speed of sound (323.15 K, x1 = 0.2988) of 1426.7 m/s, a speed of sound (323.15 K, x1 = 0.499) of 1407.6 m/s and a speed of sound (323.15 K, x1 = 0.591) of 1400.6 m/s. The speed of sound (323.15 K, x1 = 0.812) was 1390.3 m/s, the speed of sound (323.15 K, x1 = 0.8415) was 1389.3 m/s and the speed of sound (323.15 K, x1 = 0.8812) was 1388.1 m/s. For the same compound, the speed of sound (323.15 K, x1 = 1) was 1385.6 m/s.
